Experimental data reported in US20240116985A1, “STAPLED PEPTIDES AND METHODS THEREOF” (priority 2020, published 2024).
pIC50: −log10 of the molar value.

How the values were obtained:
[1] = biological target: T1, beta-catenin/TCF4 engagement (Homo sapiens, UniProt P35222); experiment: Nano-BRET target engagement assay (B-cat-Halo & TCF4-Luc in HEK293 cells); type: cell-based; conditions: absolute IC50; read-out: NanoBRET Abs IC50
T1 construct: expressed in transfected cells; host or cells: HEK293
T1 sequence (P35222 1-781): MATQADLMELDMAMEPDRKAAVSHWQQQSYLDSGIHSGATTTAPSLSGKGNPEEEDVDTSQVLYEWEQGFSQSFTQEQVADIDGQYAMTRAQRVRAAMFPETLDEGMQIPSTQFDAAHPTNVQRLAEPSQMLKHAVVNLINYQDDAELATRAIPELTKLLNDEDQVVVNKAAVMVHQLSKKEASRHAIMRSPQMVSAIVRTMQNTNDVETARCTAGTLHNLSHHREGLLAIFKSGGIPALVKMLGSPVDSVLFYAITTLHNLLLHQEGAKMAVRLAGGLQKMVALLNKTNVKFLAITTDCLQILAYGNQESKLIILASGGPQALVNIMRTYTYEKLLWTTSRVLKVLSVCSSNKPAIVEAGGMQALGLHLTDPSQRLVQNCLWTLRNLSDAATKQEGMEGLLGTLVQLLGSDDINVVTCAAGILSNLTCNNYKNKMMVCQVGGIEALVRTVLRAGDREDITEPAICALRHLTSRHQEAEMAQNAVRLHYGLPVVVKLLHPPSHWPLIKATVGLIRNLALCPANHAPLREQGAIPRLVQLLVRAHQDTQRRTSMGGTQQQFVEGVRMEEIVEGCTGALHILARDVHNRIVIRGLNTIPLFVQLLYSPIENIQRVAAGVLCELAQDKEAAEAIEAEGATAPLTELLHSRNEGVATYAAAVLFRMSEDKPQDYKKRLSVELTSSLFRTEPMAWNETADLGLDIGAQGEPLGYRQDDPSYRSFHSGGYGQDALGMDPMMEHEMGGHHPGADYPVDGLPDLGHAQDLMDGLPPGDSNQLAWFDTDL

[2] = biological target: T2, full-length beta-Catenin (Uniprot ID P35222) (Homo sapiens, UniProt P35222); experiment: Fluorescence polarization IC50 (beta-catenin / 5FAM-TCF4 10-53 competition); type: binding; conditions: fluorescence polarization; read-out: beta-Catenin FP IC50
T2 construct: 10 nM full-length beta-Catenin (Uniprot ID P35222)
T2 sequence (P35222 1-781): T1 sequence (P35222 1-781)

| SMILES | pIC50 [1] | pIC50 [2] |
| --- | --- | --- |
| CC(=O)N1CCC[C@]12CC=CCCCC1(CCCC=CCCCOC(=O)N3CC[C@@](C(=O)N[C@@H](Cc4ccsc4)C(=O)N[C@@H](Cc4csc5ccccc45)C(=O)N[C@H](C(N)=O)C(C)C)(C3)NC(=O)[C@H]([C@@H](C)O)NC(=O)[C@H](Cc3ccccc3)NC(=O)[C@H](C)NC(=O)[C@H](CCCCNC(C)C)NC(=O)[C@H](CN(CC(=O)O)CC(F)(F)F)NC(=O)[C@H](CC(=O)O)NC1=O)NC(=O)[C@H](CC(C)(C)C)NC(=O)[C@H](CC(=O)O)NC2=O (stereo partly drawn) [I-1764, Ac-PL3-Asp-Npg-B5-Asp-TfeGA-iPrLys-Ala-Phe-Thr-PyrS2-3Thi-BztA-Val-NH2] | < 4.70 | 7.64 |
| CC(=O)N1CCC[C@]12CCCCCCC1(CCCCCCCCOC(=O)N3CC[C@@](C(=O)N[C@@H](Cc4ccsc4)C(=O)N[C@@H](Cc4csc5ccccc45)C(=O)N[C@@H](Cc4ccccc4)C(N)=O)(C3)NC(=O)[C@H]([C@@H](C)O)NC(=O)[C@H](Cc3ccccc3)NC(=O)[C@H](C)NC(=O)[C@H](CCCCNC(C)C)NC(=O)[C@H](CN(CC(=O)O)CC(F)(F)F)NC(=O)[C@H](CC(=O)O)NC1=O)NC(=O)[C@H](CC(C)(C)C)NC(=O)[C@H](CC(=O)O)NC2=O (stereo partly drawn) [I-1768, Ac-PL3-Asp-Npg-B5-Asp-TfeGA-iPrLys-Ala-Phe-Thr-PyrS2-3Thi-BztA-Phe-NH2] | < 4.70 | 7.16 |
| CC(=O)N1CCC[C@]12CCCCCCC1(CCCCCCCCOC(=O)N3CC[C@@](C(=O)N[C@@H](Cc4ccsc4)C(=O)N[C@@H](Cc4csc5ccccc45)C(=O)N[C@H](C(N)=O)C(C)C)(C3)NC(=O)[C@H]([C@@H](C)O)NC(=O)[C@H](Cc3ccccc3)NC(=O)[C@H](C)NC(=O)[C@H](CCCCNC(C)C)NC(=O)[C@H](CN(CC(=O)O)CC(F)(F)F)NC(=O)[C@H](CC(=O)O)NC1=O)NC(=O)[C@H](CC(C)(C)C)NC(=O)[C@H](CC(=O)O)NC2=O (stereo partly drawn) [I-1770, Ac-PL3-Asp-Npg-B5-Asp-TfeGA-iPrLys-Ala-Phe-Thr-PyrS2-3Thi-BztA-Val-NH2] | < 4.70 | 6.76 |

Stronger by pIC50 [1], values ahead:

| pIC50 [1] | pIC50 [2] | SMILES |
| --- | --- | --- |
| 5.17 | 7.85 | CC(=O)N1CCC[C@]12CC=CCCCC1(CCCC=CCCCOC(=O)N3CC[C@@](C(=O)N[C@@H](Cc4ccsc4)C(=O)N[C@@H](Cc4csc5ccccc45)C(=O)N[C@@H](CCC(N)=O)C(N)=O)(C3)NC(=O)[C@H](CC(C)C)NC(=O)[C@H](Cc3ccccc3)NC(=O)[C@H](C)NC(=O)[C@H](C)NC(=O)[C@H](CN(CC(=O)O)CC(F)(F)F)NC(=O)[C@H](CC(=O)O)NC1=O)NC(=O)[C@H](CCC(C)(C)C)NC(=O)[C@H](CC(=O)O)NC2=O (stereo partly drawn) [I-1772, Ac-PL3-Asp-Npa-B5-Asp-TfeGA-Ala-Ala-Phe-Leu-PyrS2-3Thi-BztA-Gln-NH2] |
| 5.07 | 7.49 | CC(=O)N1CCC[C@]12CC=CCCCC1(CCCC=CCCCOC(=O)N3CC[C@@](C(=O)N[C@@H](Cc4ccsc4)C(=O)N[C@@H](Cc4csc5ccccc45)C(=O)N[C@@H](CCC(N)=O)C(N)=O)(C3)NC(=O)[C@H](CC(C)(C)C)NC(=O)[C@H](Cc3ccccc3)NC(=O)[C@H](C)NC(=O)[C@H](C)NC(=O)[C@H](CN(CC(=O)O)CC(F)(F)F)NC(=O)[C@H](CC(=O)O)NC1=O)NC(=O)[C@H](CC(C)(C)C)NC(=O)[C@H](CC(=O)O)NC2=O (stereo partly drawn) [I-1773, Ac-PL3-Asp-Npg-B5-Asp-TfeGA-Ala-Ala-Phe-Npg-PyrS2-3Thi-BztA-Gln-NH2] |
| 5.05 | 7.55 | CC(=O)N1CCC[C@]12CC=CCCCC1(CCCC=CCCCOC(=O)N3CC[C@@](C(=O)N[C@@H](Cc4ccsc4)C(=O)N[C@@H](Cc4csc5ccccc45)C(=O)N[C@@H](CCC(N)=O)C(N)=O)(C3)NC(=O)[C@H](CC3CCCCC3)NC(=O)[C@H](Cc3ccccc3)NC(=O)[C@H](C)NC(=O)[C@H](C)NC(=O)[C@H](CN(CC(=O)O)CC(F)(F)F)NC(=O)[C@H](CC(=O)O)NC1=O)NC(=O)[C@H](CC(C)(C)C)NC(=O)[C@H](CC(=O)O)NC2=O (stereo partly drawn) [I-1774, Ac-PL3-Asp-Npg-B5-Asp-TfeGA-Ala-Ala-Phe-Cha-PyrS2-3Thi-BztA-Gln-NH2] |
